Measured values published in US9113629B2, “4-amino-6-(4-substituted-phenyl)-picolinates and 6-amino-2-(4-substituted-phenyl)-pyrimidine-4-carboxylates and their use as herbicides” (DOW AGROSCIENCES LLC, priority 2013, dated 2015).

Key:
Assay in all cases: Post-emergent Test III, herbicidal activity in wheat and barley
Format in all cases: in vivo
[1] = tested on: KCHSC: kochia (Kochia scoparia); settings: Table 9, 21 d; for pest or weed control at 35 g/ha / pest or weed control at 70 g/ha / pest or weed control at 140 g/ha: Bassia scoparia, post-emergence, 504 h, post-emergent, read-out: Visual Growth Reduction (%) 21 Days After Application KCHSC; for pest or weed control at 35 g/ha: 35 g ai/ha; for pest or weed control at 70 g/ha: 70 g ai/ha; for pest or weed control at 140 g/ha: 140 g ai/ha; for GR50 KCHSC: dose for 50 percent growth reduction; for GR50 KCHSC / GR80 KCHSC: probit analysis; for GR80 KCHSC: dose for 80 percent growth reduction
Method in brief: (§1)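 GR20, GR50, GR80 and GR90 come from probit analysis of visual injury scores (0 = none, 100 = complete kill) taken 21 d after treatment. Foliar application was by track sprayer delivering 187 L/ha at five rates, from high down to 1/16×, onto greenhouse plants at the 2–3 leaf stage, with solvent-blank controls.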

[2] = tested on: HORSS: barley, including spring and winter (Hordeum vulgare); settings: Table 9, 21 d; for pest or weed control at 35 g/ha / pest or weed control at 70 g/ha / pest or weed control at 140 g/ha: Hordeum vulgare, post-emergence, 504 h, post-emergent, read-out: Visual Growth Reduction (%) 21 Days After Application HORSS; for pest or weed control at 35 g/ha: 35 g ai/ha; for pest or weed control at 70 g/ha: 70 g ai/ha; for pest or weed control at 140 g/ha: 140 g ai/ha; for GR20 HORSS: dose for 20 percent growth reduction, probit analysis
Method in brief: as §1

[3] = tested on: SETVI: green foxtail (Setaria viridis); settings: Table 9, 21 d; for pest or weed control at 35 g/ha / pest or weed control at 70 g/ha / pest or weed control at 140 g/ha: Setaria viridis, post-emergence, 504 h, post-emergent, read-out: Visual Growth Reduction (%) 21 Days After Application SETVI; for pest or weed control at 35 g/ha: 35 g ai/ha; for pest or weed control at 70 g/ha: 70 g ai/ha; for pest or weed control at 140 g/ha: 140 g ai/ha; for GR50 SETVI: dose for 50 percent growth reduction; for GR50 SETVI / GR80 SETVI: probit analysis; for GR80 SETVI: dose for 80 percent growth reduction
Method in brief: as §1

[4] = tested on: TRZSS: wheat, including spring and winter (Triticum aestivum); settings: Table 9, 21 d; for GR20 TRZSS: dose for 20 percent growth reduction, probit analysis; for pest or weed control at 35 g/ha / pest or weed control at 70 g/ha / pest or weed control at 140 g/ha: Triticum aestivum, post-emergence, 504 h, post-emergent, read-out: Visual Growth Reduction (%) 21 Days After Application TRZSS; for pest or weed control at 35 g/ha: 35 g ai/ha; for pest or weed control at 70 g/ha: 70 g ai/ha; for pest or weed control at 140 g/ha: 140 g ai/ha
Method in brief: as §1

[5] = tested on: APESV: bentgrass (Apera spica-venti); settings: Table 9, 21 d; for pest or weed control at 35 g/ha / pest or weed control at 70 g/ha / pest or weed control at 140 g/ha: Apera spica-venti, post-emergence, 504 h, post-emergent, read-out: Visual Growth Reduction (%) 21 Days After Application APESV; for pest or weed control at 35 g/ha: 35 g ai/ha; for pest or weed control at 70 g/ha: 70 g ai/ha; for pest or weed control at 140 g/ha: 140 g ai/ha; for GR50 APESV: dose for 50 percent growth reduction; for GR50 APESV / GR80 APESV: probit analysis; for GR80 APESV: dose for 80 percent growth reduction
Method in brief: as §1

[6] = tested on: LOLSS: ryegrass including, Italian ryegrass (Lolium multiflorum), rigid ryegrass (Lolium rigidum), annual ryegrass (Lolium multiflorum subsp. Gaudini); settings: Table 9, probit analysis, 21 d; for GR50 LOLSS: dose for 50 percent growth reduction; for GR80 LOLSS: dose for 80 percent growth reduction
Method in brief: as §1

| SMILES | pest or weed control at 35 g/ha [1] [%] | pest or weed control at 70 g/ha [1] [%] | GR50 KCHSC [1] [g ai/ha] | GR80 KCHSC [1] [g ai/ha] | pest or weed control at 35 g/ha [2] [%] | pest or weed control at 70 g/ha [2] [%] | GR20 HORSS [2] [g ai/ha] | pest or weed control at 35 g/ha [3] [%] | pest or weed control at 70 g/ha [3] [%] | GR50 SETVI [3] [g ai/ha] | GR80 SETVI [3] [g ai/ha] | GR20 TRZSS [4] [g ai/ha] | pest or weed control at 35 g/ha [4] [%] | pest or weed control at 70 g/ha [4] [%] | pest or weed control at 35 g/ha [5] [%] | pest or weed control at 70 g/ha [5] [%] | GR50 APESV [5] [g ai/ha] | GR80 APESV [5] [g ai/ha] | GR50 LOLSS [6] [g ai/ha] | GR80 LOLSS [6] [g ai/ha] | other results |
| --- | --- | --- | --- | --- | --- | --- | --- | --- | --- | --- | --- | --- | --- | --- | --- | --- | --- | --- | --- | --- | --- |
| COc1c(N)nc(-c2ccc(Br)cc2F)nc1C(=O)O [Compound 46] | 75 to 84 | 85 to 94 | 10 | 45 | 60 to 74 | 60 to 74 | 8 | 0 to 29 | 30 to 44 | >140 | >140 | 1 | 75 to 84 | 75 to 84 | 0 to 29 | 0 to 29 | >140 | >140 | 118 | >140 | pest or weed control at 140 g/ha [1]: 85 to 94%; pest or weed control at 140 g/ha [2]: 85 to 94%; pest or weed control at 140 g/ha [3]: 30 to 44%; pest or weed control at 140 g/ha [4]: 85 to 94%; pest or weed control at 140 g/ha [5]: 45 to 59% |
| C#Cc1ccc(-c2nc(N)c(OC)c(C(=O)O)n2)c(F)c1F [Compound 154] | 0 to 29 | 0 to 29 | 57 | 93 | 0 to 29 | 0 to 29 | 81 | 30 to 44 | 60 to 74 | 56 | 109 | 49 | 0 to 29 | 30 to 44 | 0 to 29 | 0 to 29 | >140 | >140 | >140 | >140 | pest or weed control at 140 g/ha [1]: 0 to 29%; pest or weed control at 140 g/ha [2]: 45 to 59%; pest or weed control at 140 g/ha [3]: 75 to 84%; pest or weed control at 140 g/ha [4]: 45 to 59%; pest or weed control at 140 g/ha [5]: 0 to 29% |
| Nc1cc(-c2ccc(Br)cc2)nc(C(=O)O)c1Cl [Compound 168] | 95 to 100 | 95 to 100 | 5 | 15 | 85 to 94 | 95 to 100 | 1 | 45 to 59 | 60 to 74 | 28 | 70 | 1 | 85 to 94 | 95 to 100 | 75 to 84 | 85 to 94 | 21 | 57 | 108 | >140 | – |
